The numbers were not newly measured in patent US20110183005A1, “PROCESS FOR THE PREPARATION OF CO[…] OF STABILIZED HYPOBROMITES” (BROMINE COMPOUNDS LTD., priority 2002, published 2011), which cites them from elsewhere.

The structures appear in SMILES notation.

The conditions of the data set: at 25° C.

For `OBr` [Hypobromous acid], the pK is 8.8.
